Test results from paper PMC4099110, “Synthesis and Evaluation of Novel Pyrroles and Pyrrolopyrimidines as Anti-Hyperglycemic Agents” (BioMed Research International, 2014).

Tests used:
male Wistar albino rats = test: Streptozotocin (STZ) model of diabetes, blood glucose AUC; assay type: in vivo, rat; conditions: decrease in blood glucose relative to Amaryl = 100%; model not stated
Method: The complete course of the experiment was conducted using male Wistar albino rats (200-250 g), reared and maintained in the animal house of the institution and provided free access to pelleted food and water ad libitum. The rats were maintained in a controlled environment (12 h light and dark cycle) for about a week for acclimatization. The protocol of the study was approved by the animal ethics committee of the Faculty of Pharmacy, […] University (10-01-2012). The study was conducted in accordance with the EC, directive 86/609/EEC for animal experiments. […] Equivalent doses of all derivatives were calculated according to their molecular weight [M·wt]. Diabetes was induced in overnight fasted rats with a single intraperitoneal injection of streptozotocin (STZ) (Sigma-Aldrich, Co., St. Louis, USA. Catalog number: 1001062761) in a dose of 65 mg/kg. STZ was freshly dissolved in ice cold citrate buffer (0.01 M, pH 4.5) prior to injection. […] Group 2, diabetic + Glimepiride ([…]) (4 mg/kg), served as a reference antidiabetic drug. Groups (3-14) were given the various pyrrole derivatives ([…], b, f, and VIIIf, a, resp.). The treated groups administered the […] and different derivatives orally. For each group, blood glucose was estimated at zero, one, two, four, and six hours after oral administration of derivatives using glucometer (Gluco Dr Super Sensor, AllMedicus Co., Ltd., Anyang, Gyeonggi, Korea). Data were represented as mean area under curve (AUC) ± SD. Significant differences between groups was tested using GraphPad InStat (Graph software Inc., V 3.05, Ralph […], Purdue University). Appropriate graphs were plotted using Microsoft Excel 2007.

Compound | melting point [°C] | Potency of antihyperglycemic derivatives compared to Amaryl (male Wistar albino rats) [%]
Nc1ncnc2c1c(-c1ccccc1)c(-c1ccccc1)n2-c1ccc(Cl)c(Cl)c1 [IIId, 7-(3,4-Dichlorophenyl)-5,6-diphenyl-7H-pyrrolo[2,3-d]pyrimidin-4-amine] | 115 to 118 | –
Cc1c(-n2cc(-c3ccccc3)c3c(N)ncnc32)c(=O)n(-c2ccccc2)n1C [IIIe, 4-(4-Amino-5-phenyl-7H-pyrrolo[2,3-d]pyrimidin-7-yl)-1,5-dimethyl-2-phenyl-1H-pyrazol-3(2H)-one] | 152 to 155 | –
Nc1nc(=S)[nH]c2c1c(-c1ccccc1)c(-c1ccccc1)n2-c1ccc(Cl)c(Cl)c1 [IIIi, 4-Amino-7-(3,4-dichlorophenyl)-5,6-diphenyl-1H-pyrrolo[2,3-d] pyrimidine-2(7H)-thione] | 90 to 95 | –
Cc1c(-n2cc(-c3ccccc3)c3c(N)nc(=S)[nH]c32)c(=O)n(-c2ccccc2)n1C [IIIj, 4-(4-Amino-5-phenyl-2-thioxo-1H-pyrrolo[2,3-d]pyrimidin-7(2H)-yl)-1,5-dimethyl-2-phenyl-1H-pyrazol-3(2H)-one] | 172 to 174 | –
O=c1[nH]cnc2c1c(-c1ccccc1)c(-c1ccccc1)n2-c1ccc(Cl)c(Cl)c1 [IId, 7-(3,4-Dichlorophenyl)-5,6-diphenyl-3H-pyrrolo[2,3-d]pyrimidin-4(7H)-one] | 172 to 176 | –
Cc1c(-n2cc(-c3ccccc3)c3c(=O)[nH]cnc32)c(=O)n(-c2ccccc2)n1C [IIe, 7-(1,5-Dimethyl-3-oxo-2-phenyl-2,3-dihydro-1H-pyrazol-4-yl)-5-phenyl-3H-pyrrolo[2,3-d]pyrimidin-4(7H)-one] | 205 to 208 | –
Cc1nc2c(c(-c3ccccc3)cn2-c2c(C)n(C)n(-c3ccccc3)c2=O)c(=O)[nH]1 [IIj, 7-(1,5-Dimethyl-3-oxo-2-phenyl-2,3-dihydro-1H-pyrazol-4-yl)-2-methyl-5-phenyl-3H-pyrrolo[2,3-d]pyrimidin-4(7H)-one] | 225 to 227 | –
Clc1ccc(-n2c(-c3ccccc3)c(-c3ccccc3)c3c(Cl)ncnc32)cc1Cl [IVd, 4-Chloro-7-(3,4-dichlorophenyl)-5,6-diphenyl-7H-pyrrolo[2,3-d]pyrimidine] | 124 to 128 | –
Cc1c(-n2cc(-c3ccccc3)c3c(Cl)ncnc32)c(=O)n(-c2ccccc2)n1C [IVe, 4-(4-Chloro-5-phenyl-7H-pyrrolo[2,3-d]pyrimidin-7-yl)-1,5-dimethyl-2-phenyl-1H-pyrazol-3(2H)-one] | 125 to 130 | –
Cc1nc(Cl)c2c(-c3ccccc3)cn(-c3c(C)n(C)n(-c4ccccc4)c3=O)c2n1 [IVi, 4-(4-Chloro-2-methyl-5-phenyl-7H-pyrrolo[2,3-d]pyrimidin-7-yl)-1,5-dimethyl-2-phenyl-1H-pyrazol-3(2H)-one] | 95 to 100 | –
Cc1c(-n2cc(-c3ccccc3)c(C#N)c2NN=C2C(N)=NN=C2N)c(=O)n(-c2ccccc2)n1C [VIIIe, 2-(2-(3,5-Diamino-4H-pyrazol-4-ylidene)hydrazinyl)-1-(1,5-dimethyl-3-oxo-2-phenyl-2,3-dihydro-1H-pyrazol-4-yl)-4-phenyl-1H-pyrrole-3-carbonitrile] | 135 to 138 | –
S=c1[nH]cnc2c1c(-c1ccccc1)c(-c1ccccc1)n2-c1ccc(Cl)c(Cl)c1 [VId, 7-(3,4-Dichlorophenyl)-5,6-diphenyl-3H-pyrrolo[2,3-d]pyrimidine-4(7H)-thione] | 142 to 166 | –
Cc1c(-n2cc(-c3ccccc3)c3c(=S)[nH]cnc32)c(=O)n(-c2ccccc2)n1C [VIe, 1,5-Dimethyl-2-phenyl-4-(5-phenyl-4-thioxo-3H-pyrrolo[2,3-d]pyrimidin-7(4H)-yl)-1H-pyrazol-3(2H)-one] | 142 to 166 | –
Cc1c(-n2cc(-c3ccccc3)c3c(NN)ncnc32)c(=O)n(-c2ccccc2)n1C [Ve, 4-(4-Hydrazinyl-5-phenyl-7H-pyrrolo[2,3-d]pyrimidin-7-yl)-1,5-dimethyl-2-phenyl-1H-pyrazol-3(2H)-one] | 142 to 146 | –
Cc1nc(NN)c2c(-c3ccccc3)cn(-c3c(C)n(C)n(-c4ccccc4)c3=O)c2n1 [Vi, 4-(4-Hydrazinyl-2-methyl-5-phenyl-7H-pyrrolo[2,3-d]pyrimidin-7-yl)-1,5-dimethyl-2-phenyl-1H-pyrazol-3(2H)-one] | 148 to 150 | –

Second part, led by results:

melting point [°C] | Compound | Potency of antihyperglycemic derivatives compared to Amaryl (male Wistar albino rats) [%]
200 to 202 | Cc1nc2c(c(-c3ccccc3)c(-c3ccccc3)n2-c2ccc(Cl)c(Cl)c2)c(=O)[nH]1 [IIi, 7-(3,4-Dichlorophenyl)-2-methyl-5,6-diphenyl-3H-pyrrolo[2,3-d]pyrimidin-4(7H)-one] | –
120 to 124 | Cc1nc(Cl)c2c(-c3ccccc3)c(-c3ccccc3)n(Cc3ccccc3)c2n1 [IVf, 7-Benzyl-4-chloro-2-methyl-5,6-diphenyl-7H-pyrrolo[2,3-d]pyrimidine] | –
108 to 110 | Cc1nc(Cl)c2c(-c3ccccc3)c(-c3ccccc3)n(-c3ccc(Cl)c(Cl)c3)c2n1 [IVh, 4-Chloro-7-(3,4-dichlorophenyl)-2-methyl-5,6-diphenyl-7H-pyrrolo[2,3-d]pyrimidine] | –
118 to 122 | N#Cc1c(-c2ccccc2)c(-c2ccccc2)n(-c2ccc(Cl)c(Cl)c2)c1N [Id, 2-Amino-1-(3,4-dichlorophenyl)-4,5-diphenyl-1H-pyrrole-3-carbonitrile] | –
135 to 138 | CC(=O)Nc1c(C#N)c(-c2ccccc2)c(-c2ccccc2)n1-c1ccc(Cl)c(Cl)c1 [In, N-(3-Cyano-1-(3,4-dichlorophenyl)-4,5-diphenyl-1H -pyrrol-2-yl) acetamide] | –
135 to 138 | CC(=O)Nc1c(C#N)c(-c2ccccc2)cn1-c1c(C)n(C)n(-c2ccccc2)c1=O [Io, N-(3-Cyano-1-(1,5-dimethyl-3-oxo-2-phenyl-2,3-dihydro-1H -pyrazol-4-yl)-4-phenyl-1H -pyrrol-2-yl)acetamide] | –
120 to 124 | N#Cc1c(-c2ccccc2)c(-c2ccccc2)n(-c2ccc(Cl)c(Cl)c2)c1NN=C1C(N)=NN=C1N [VIIId, 2-(2-(3,5-Diamino-4H-pyrazol-4-ylidene)hydrazinyl)-1-(3,4-dichlorophenyl)-4,5-diphenyl-1H-pyrrole-3-carbonitrile] | –
97 to 100 | N#Cc1c(-c2ccccc2)c(-c2ccccc2)n(Cc2ccccc2)c1NN=C1C(N)=NN=C1O [VIIIf, 2-(2-(3-Amino-5-hydroxy-4H-pyrazol-4-ylidene)hydrazinyl)-1-benzyl-4,5-diphenyl-1H-pyrrole-3-carbonitrile] | –
125 to 130 | CCOC(=O)C(C#N)=NNc1c(C#N)c(-c2ccccc2)c(-c2ccccc2)n1Cc1ccccc1 [VIIf, Ethyl 2-(2-(1-Benzyl-3-cyano-4,5-diphenyl-1H-pyrrol-2-yl)hydrazono)-2-cyano-acetate] | –
165 to 167 | Cc1nc2c(c(-c3ccccc3)c(-c3ccccc3)n2Cc2ccccc2)c(=S)[nH]1 [VIf, 7-Benzyl-2-methyl-5,6-diphenyl-3H-pyrrolo[2,3-d]pyrimidine-4(7H)-thione] | –
122 to 126 | NNc1ncnc2c1c(-c1ccccc1)c(-c1ccccc1)n2-c1ccc(Cl)c(Cl)c1 [Vd, 7-(3,4-Dichlorophenyl)-4-hydrazinyl-5,6-diphenyl-7H-pyrrolo[2,3-d]pyrimidine] | –
147 to 152 | Cc1nc(NN)c2c(-c3ccccc3)c(-c3ccccc3)n(Cc3ccccc3)c2n1 [Vf, 7-Benzyl-4-hydrazinyl-2-methyl-5,6-diphenyl-7H-pyrrolo[2,3-d] pyrimidine] | –
185 to 188 | Cc1nc(NN)c2c(-c3ccccc3)c(-c3ccccc3)n(-c3c(C)n(C)n(-c4ccccc4)c3=O)c2n1 [Vg, 4-(4-Hydrazinyl-2-methyl-5,6-diphenyl-7H-pyrrolo[2,3-d]pyrimidin-7-yl)-1,5-dimethyl-2-phenyl-1H-pyrazol-3(2H)-one] | 36.19
142 to 146 | Cc1nc(NN)c2c(-c3ccccc3)c(-c3ccccc3)n(-c3ccc(Cl)c(Cl)c3)c2n1 [Vh, 7-(3,4-Dichlorophenyl)-4-hydrazinyl-2-methyl-5,6-diphenyl-7H-pyrrolo[2,3-d]pyrimidine] | –
